Reference: patent US20180000085A1, “USE OF PICOLINAMIDE COMPOUNDS WITH FUNGICIDAL ACTIVITY” (DOW AGROSCIENCES LLC, priority 2014, published 2018)

What was measured:
Format in all cases: in vivo
[1] = tested on: Phakopsora pachyrhizi; test: Asian soybean rust (PHAKPA) disease control; set-up: key: A: > 80; B: ≤ 80; C: Not Tested; D: No Activity Observed in the Reported Assay; conditions: 25 ppm; for PHAKPA disease control, 1DP: 1 Day Protectant; for PHAKPA disease control, 3DC: 3 Day Curative
[2] = tested on: Puccinia triticina; test: Wheat brown rust (PUCCRT) disease control on wheat seedlings; conditions: low volume application, 125.1 g/H; for PUCCRT 1DP disease control rating, LV activity at 125.1 g/H: 1 day protectant; for PUCCRT 3DC disease control rating, LV activity at 125.1 g/H: 3 day curative; for PUCCRT 1DP, LV activity at 125.1 g/H (% Control rating): 1 Day Protectant; for PUCCRT 3DC, LV activity at 125.1 g/H (% Control rating): 3 Day Curative
[3] = tested on: Zymoseptoria tritici; test: Leaf blotch of wheat (SEPTTR) disease control on wheat seedlings; conditions: low volume application, 125.1 g/H; for SEPTTR 1DP disease control rating, LV activity at 125.1 g/H: 1 day protectant; for SEPTTR 3DC disease control rating, LV activity at 125.1 g/H: 3 day curative; for SEPTTR 1DP, LV activity at 125.1 g/H (% Control rating): 1 Day Protectant; for SEPTTR 3DC, LV activity at 125.1 g/H (% Control rating): 3 Day Curative

## COc1ccnc(C(=O)NC(C)C(=O)OC(C)C(Oc2ccc(C)cc2)C2CCCC2)c1OCOC(C)=O (stereo not drawn) [Cmpd 916]
[1]
  PHAKPA disease control, 1DP: A (> 80)
  PHAKPA disease control, 3DC: D
[2]
  PUCCRT 1DP disease control rating, LV activity at 125.1 g/H: A (> 80)
  PUCCRT 3DC disease control rating, LV activity at 125.1 g/H: A (> 80)
[3]
  SEPTTR 1DP disease control rating, LV activity at 125.1 g/H: A (> 80)
  SEPTTR 3DC disease control rating, LV activity at 125.1 g/H: B (≤ 80)

## CCC(CC)[C@@H](Oc1ccccc1)[C@H](C)OC(=O)CNC(=O)c1nccc(OC)c1OC(C)=O [Cmpd 480]
[1]
  PHAKPA disease control, 1DP: B (≤ 80)
  PHAKPA disease control, 3DC: B (≤ 80)
[2]
  PUCCRT 1DP, LV activity at 125.1 g/H (% Control rating): A (> 80)
  PUCCRT 3DC, LV activity at 125.1 g/H (% Control rating): A (> 80)
[3]
  SEPTTR 1DP, LV activity at 125.1 g/H (% Control rating): B (≤ 80)
  SEPTTR 3DC, LV activity at 125.1 g/H (% Control rating): B (≤ 80)

## COc1ccnc(C(=O)N[C@@H](C)C(=O)O[C@@H](C)[C@H](Oc2cccc(F)c2)c2ccccc2)c1OC(C)=O [Cmpd 575]
[1]
  PHAKPA disease control, 1DP: A (> 80)
  PHAKPA disease control, 3DC: B (≤ 80)
[2]
  PUCCRT 1DP, LV activity at 125.1 g/H (% Control rating): A (> 80)
  PUCCRT 3DC, LV activity at 125.1 g/H (% Control rating): A (> 80)
[3]
  SEPTTR 1DP, LV activity at 125.1 g/H (% Control rating): A (> 80)
  SEPTTR 3DC, LV activity at 125.1 g/H (% Control rating): A (> 80)

## COc1ccnc(C(=O)N[C@@H](C)C(=O)O[C@@H](C)[C@H](Oc2ccc(F)cc2)C(C)C)c1OC(C)=O [Cmpd 626]
[1]
  PHAKPA disease control, 1DP: A (> 80)
  PHAKPA disease control, 3DC: B (≤ 80)
[2]
  PUCCRT 1DP, LV activity at 125.1 g/H (% Control rating): A (> 80)
  PUCCRT 3DC, LV activity at 125.1 g/H (% Control rating): A (> 80)
[3]
  SEPTTR 1DP, LV activity at 125.1 g/H (% Control rating): A (> 80)
  SEPTTR 3DC, LV activity at 125.1 g/H (% Control rating): A (> 80)

## COc1ccnc(C(=O)N[C@@H](C)C(=O)O[C@@H](C)[C@H](OCC2CC2)c2cccc(-c3ccccc3)c2)c1OCOC(C)=O [Cmpd 873]
[1]
  PHAKPA disease control, 1DP: A (> 80)
  PHAKPA disease control, 3DC: B (≤ 80)
[2]
  PUCCRT 1DP disease control rating, LV activity at 125.1 g/H: A (> 80)
  PUCCRT 3DC disease control rating, LV activity at 125.1 g/H: A (> 80)
[3]
  SEPTTR 1DP disease control rating, LV activity at 125.1 g/H: B (≤ 80)
  SEPTTR 3DC disease control rating, LV activity at 125.1 g/H: A (> 80)

## COc1ccnc(C(=O)N[C@@H](C)C(=O)O[C@@H](C)[C@H](Oc2cccc3ccccc23)C(C)C)c1OCOC(C)=O [Cmpd 621]
[1]
  PHAKPA disease control, 1DP: A (> 80)
  PHAKPA disease control, 3DC: D
[2]
  PUCCRT 1DP, LV activity at 125.1 g/H (% Control rating): A (> 80)
  PUCCRT 3DC, LV activity at 125.1 g/H (% Control rating): A (> 80)
[3]
  SEPTTR 1DP, LV activity at 125.1 g/H (% Control rating): B (≤ 80)
  SEPTTR 3DC, LV activity at 125.1 g/H (% Control rating): A (> 80)

## CCC(CC)[C@H](Oc1cccc(F)c1)[C@H](C)OC(=O)[C@H](C)NC(=O)c1nccc(OC)c1OCOC(C)=O [Cmpd 668]
[1]
  PHAKPA disease control, 1DP: B (≤ 80)
  PHAKPA disease control, 3DC: B (≤ 80)
[2]
  PUCCRT 1DP disease control rating, LV activity at 125.1 g/H: A (> 80)
  PUCCRT 3DC disease control rating, LV activity at 125.1 g/H: A (> 80)
[3]
  SEPTTR 1DP disease control rating, LV activity at 125.1 g/H: A (> 80)
  SEPTTR 3DC disease control rating, LV activity at 125.1 g/H: A (> 80)

## CCC(CC)[C@H](Oc1ccc(Cl)cc1)[C@H](C)OC(=O)[C@H](C)NC(=O)c1nccc(OC)c1OCOC(C)=O [Cmpd 669]
[1]
  PHAKPA disease control, 1DP: A (> 80)
  PHAKPA disease control, 3DC: B (≤ 80)
[2]
  PUCCRT 1DP disease control rating, LV activity at 125.1 g/H: A (> 80)
  PUCCRT 3DC disease control rating, LV activity at 125.1 g/H: A (> 80)
[3]
  SEPTTR 1DP disease control rating, LV activity at 125.1 g/H: A (> 80)
  SEPTTR 3DC disease control rating, LV activity at 125.1 g/H: A (> 80)

## CCCOC[C@@H](Oc1ccccc1)[C@H](C)OC(=O)[C@H](C)NC(=O)c1nccc(OC)c1OC(C)=O [Cmpd 474]
[1]
  PHAKPA disease control, 1DP: B (≤ 80)
  PHAKPA disease control, 3DC: B (≤ 80)
[2]
  PUCCRT 1DP, LV activity at 125.1 g/H (% Control rating): A (> 80)
  PUCCRT 3DC, LV activity at 125.1 g/H (% Control rating): A (> 80)
[3]
  SEPTTR 1DP, LV activity at 125.1 g/H (% Control rating): B (≤ 80)
  SEPTTR 3DC, LV activity at 125.1 g/H (% Control rating): A (> 80)

## COc1ccnc(C(=O)N[C@@H](C)C(=O)O[C@@H](C)[C@H](Oc2ccc(F)cc2)C(C)C)c1OCOC(C)=O [Cmpd 615]
[1]
  PHAKPA disease control, 1DP: A (> 80)
  PHAKPA disease control, 3DC: B (≤ 80)
[2]
  PUCCRT 1DP, LV activity at 125.1 g/H (% Control rating): A (> 80)
  PUCCRT 3DC, LV activity at 125.1 g/H (% Control rating): A (> 80)
[3]
  SEPTTR 1DP, LV activity at 125.1 g/H (% Control rating): A (> 80)
  SEPTTR 3DC, LV activity at 125.1 g/H (% Control rating): A (> 80)

## CCC(CC)[C@@H](Oc1ccc(Cl)cc1)[C@H](C)OC(=O)[C@H](C)NC(=O)c1nccc(OC)c1OC(C)=O [Cmpd 600]
[1]
  PHAKPA disease control, 1DP: B (≤ 80)
  PHAKPA disease control, 3DC: B (≤ 80)
[2]
  PUCCRT 1DP, LV activity at 125.1 g/H (% Control rating): A (> 80)
  PUCCRT 3DC, LV activity at 125.1 g/H (% Control rating): A (> 80)
[3]
  SEPTTR 1DP, LV activity at 125.1 g/H (% Control rating): A (> 80)
  SEPTTR 3DC, LV activity at 125.1 g/H (% Control rating): A (> 80)

## COc1ccnc(C(=O)NC(C)C(=O)OC(C)C(Oc2ccccc2)C2CCCCC2)c1OC(C)=O (stereo not drawn) [Cmpd 908]
[1]
  PHAKPA disease control, 1DP: A (> 80)
  PHAKPA disease control, 3DC: B (≤ 80)
[2]
  PUCCRT 1DP disease control rating, LV activity at 125.1 g/H: A (> 80)
  PUCCRT 3DC disease control rating, LV activity at 125.1 g/H: A (> 80)
[3]
  SEPTTR 1DP disease control rating, LV activity at 125.1 g/H: A (> 80)
  SEPTTR 3DC disease control rating, LV activity at 125.1 g/H: A (> 80)

## COc1ccnc(C(=O)N[C@H](C(=O)O[C@@H](C)[C@H](Oc2cccc(Cl)c2)C(C)C)C(C)C)c1OC(C)=O [Cmpd 569]
[1]
  PHAKPA disease control, 1DP: A (> 80)
  PHAKPA disease control, 3DC: B (≤ 80)
[2]
  PUCCRT 1DP, LV activity at 125.1 g/H (% Control rating): A (> 80)
  PUCCRT 3DC, LV activity at 125.1 g/H (% Control rating): A (> 80)
[3]
  SEPTTR 1DP, LV activity at 125.1 g/H (% Control rating): B (≤ 80)
  SEPTTR 3DC, LV activity at 125.1 g/H (% Control rating): A (> 80)

## CCC(CC)[C@@H](OCC(C)C)[C@H](C)OC(=O)[C@H](C)NC(=O)c1nccc(OC)c1OCOC(C)=O [Cmpd 554]
[1]
  PHAKPA disease control, 1DP: A (> 80)
  PHAKPA disease control, 3DC: B (≤ 80)
[2]
  PUCCRT 1DP, LV activity at 125.1 g/H (% Control rating): A (> 80)
  PUCCRT 3DC, LV activity at 125.1 g/H (% Control rating): A (> 80)
[3]
  SEPTTR 1DP, LV activity at 125.1 g/H (% Control rating): B (≤ 80)
  SEPTTR 3DC, LV activity at 125.1 g/H (% Control rating): A (> 80)

## COc1ccnc(C(=O)N[C@@H](C)C(=O)O[C@@H](C)[C@H](Oc2ccc(F)cc2)C2CCCC2)c1OC(C)=O [Cmpd 919]
[1]
  PHAKPA disease control, 1DP: A (> 80)
  PHAKPA disease control, 3DC: D
[2]
  PUCCRT 1DP disease control rating, LV activity at 125.1 g/H: A (> 80)
  PUCCRT 3DC disease control rating, LV activity at 125.1 g/H: A (> 80)
[3]
  SEPTTR 1DP disease control rating, LV activity at 125.1 g/H: A (> 80)
  SEPTTR 3DC disease control rating, LV activity at 125.1 g/H: A (> 80)

## COc1ccnc(C(=O)N[C@@H](C)C(=O)O[C@@H](C)[C@H](Oc2ccc(Cl)cc2)C(C)C)c1OCOC(C)=O [Cmpd 563]
[1]
  PHAKPA disease control, 1DP: A (> 80)
  PHAKPA disease control, 3DC: B (≤ 80)
[2]
  PUCCRT 1DP, LV activity at 125.1 g/H (% Control rating): A (> 80)
  PUCCRT 3DC, LV activity at 125.1 g/H (% Control rating): A (> 80)
[3]
  SEPTTR 1DP, LV activity at 125.1 g/H (% Control rating): B (≤ 80)
  SEPTTR 3DC, LV activity at 125.1 g/H (% Control rating): A (> 80)
